In patent publication US9650339B2, “Inhibitors of histone demethylases” (Gilead Sciences, Inc., priority 2013, dated 2017):

Assays:
KDM4C (JMJD2C) = molecular target: T1, KDM4C (JMJD2C) (Homo sapiens, UniProt Q9H3R0); assay: Histone lysine demethylase AlphaLISA assay, KDM4C; format: biochemical; details: read-out: KDM4C HDME Inhibition IC50
T1 sequence (Q9H3R0 1-349): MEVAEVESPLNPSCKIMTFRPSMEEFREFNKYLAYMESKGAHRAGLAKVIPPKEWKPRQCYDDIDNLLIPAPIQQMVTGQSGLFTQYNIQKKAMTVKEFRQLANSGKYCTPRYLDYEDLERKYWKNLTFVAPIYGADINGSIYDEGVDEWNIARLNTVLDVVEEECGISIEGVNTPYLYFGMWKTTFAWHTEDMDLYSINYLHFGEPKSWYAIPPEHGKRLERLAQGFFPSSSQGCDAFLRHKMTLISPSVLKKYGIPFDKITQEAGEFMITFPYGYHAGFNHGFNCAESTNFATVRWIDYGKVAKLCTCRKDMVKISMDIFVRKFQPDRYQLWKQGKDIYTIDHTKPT
Experimental: (§1) Assays are performed analogously to the protocol described by PerkinElmer (Roy et al. PerkinElmer Technical Note: AlphaLISA #12, April 2011)
(§2) Enzymes are dissolved in enzyme buffer and incubated for 10 min before being added to 3% DMSO solutions of compounds in enzyme buffer. Incubated for another 10 minutes, before substrate solution is added and the reaction mixture is incubated at room temperature. 10 μL acceptor beads, suspended in Epigenetic Buffer (Perkin Elmer AL008) from stock, are added and the suspension is incubated in the dark at room temperature, before a suspension of streptavidin donor beads (Perkin Elmer 6760002) in Epigenetic Buffer is added. After incubation at room temperature in the dark the plates are read.
BK9M3: Biotin-ARTKQTAR(KMe3)STGGKAPRKQ-NH2 (Caslo, Denmark) […]
(§3) Substrate Solution: Substrate, 25 μM L-Asc, and 10 μM α-KG in Buffer A.

KDM5B (PLU-1) = molecular target: T2, KDM5B (PLU-1) (Homo sapiens, UniProt Q9UGL1); assay: Histone lysine demethylase AlphaLISA assay, KDM5B; format: biochemical; details: read-out: KDM5B HDME Inhibition IC50
T2 sequence (Q9UGL1 1-809): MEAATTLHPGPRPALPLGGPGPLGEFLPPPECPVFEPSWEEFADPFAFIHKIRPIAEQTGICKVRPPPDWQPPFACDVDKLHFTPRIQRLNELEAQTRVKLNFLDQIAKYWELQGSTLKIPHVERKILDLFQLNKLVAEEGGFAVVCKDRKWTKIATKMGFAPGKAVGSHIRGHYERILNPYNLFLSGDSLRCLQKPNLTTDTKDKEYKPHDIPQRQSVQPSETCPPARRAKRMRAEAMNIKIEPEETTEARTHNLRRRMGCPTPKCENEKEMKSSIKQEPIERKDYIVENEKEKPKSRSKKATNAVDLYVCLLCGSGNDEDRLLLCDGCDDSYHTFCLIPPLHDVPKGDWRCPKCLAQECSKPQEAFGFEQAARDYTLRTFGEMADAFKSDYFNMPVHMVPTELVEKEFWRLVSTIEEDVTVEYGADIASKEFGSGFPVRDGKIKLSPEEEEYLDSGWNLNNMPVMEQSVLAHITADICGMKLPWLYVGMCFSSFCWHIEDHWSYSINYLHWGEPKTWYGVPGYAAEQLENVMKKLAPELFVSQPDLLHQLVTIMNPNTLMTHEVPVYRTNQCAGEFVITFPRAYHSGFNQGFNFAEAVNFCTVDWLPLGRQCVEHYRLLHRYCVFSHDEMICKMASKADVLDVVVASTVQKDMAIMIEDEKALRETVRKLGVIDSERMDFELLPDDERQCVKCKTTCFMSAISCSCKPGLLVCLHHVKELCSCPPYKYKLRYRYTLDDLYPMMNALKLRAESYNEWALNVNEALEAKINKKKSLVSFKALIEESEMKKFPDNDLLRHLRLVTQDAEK
Experimental: as §1
as §2, with “read. […]” for “read.”
H3K4M3B: H-ART(Kme3)QTARKSTGGKAPRKQLA-NH-Biotin (Caslo, Denmark) […]
as §3

KDM6A (UTX) = KDM6A (UTX) (Homo sapiens, UniProt O15550); assay: Histone lysine demethylase AlphaLISA assay, KDM6A; format: biochemical; details: read-out: KDM6A HDME Inhibition IC50
Experimental: as §1
as §2, with “read. […]” for “read.”
BK27M3: Biotin-ATKAAR(Kme3)SAPATGGVKKPHRY-NH2? (Caslo, Denmark) […]
as §3

H3K4me3 mark = assay: Histone lysine demethylase immunofluorescence assay, non-transfected U2OS cells; format: cell-based; details: Homo sapiens, staining of the H3K4me3 mark, 20 hours incubation with compound
Experimental: U2OS cells were harvested and seeded into multi well plates into media containing compound. The media used was DMEM containing 5% FBS and pen/strep. 20 hours after incubation of cells with compounds, the cells were washed once in PBS, harvested by fixation with formaldehyde 4% aqueous solution, and washed in PBS. Subsequently, the cells were permeabilized in PBS with 0.2% Triton X-100. Blocking was performed in PBS with 0.2% Triton X-100 and 5% FBS. The cells were incubated with αH3K4me3 primary antibody (Cell Signaling, #9751S) in blocking solution over night at 4° C. After incubation with primary antibody, the cells were washed with PBS, incubated with secondary antibody (Alexa fluor 594 goat anti rabbit IgG, Invitrogen, A11012) and Hoechst, (Sigma, 33342) in blocking solution, and washed again with PBS. Finally, PBS was added and high throughput imaging and analysis were performed by an IN Cell Analyzer 1000 (GE Healthcare). The IC50 values were based on an average measure of the staining of the H3K4me3 mark in cells.

MCF7 cells = assay: Cell proliferation assay MCF7; format: cell-based; details: MCF7 human breast cancer cells; 120 hours; ATPlite 1 Step
Experimental: MCF7 cells were seeded in multi well plates at a density optimized to give approximately 90% confluent cells at the time of harvest. Cells were incubated for 24 hours before addition of compound. Compounds were diluted in complete medium and added to the plates in duplicates. The final concentration of DMSO was maximum 0.5%. Complete medium used was DMEM with GlutaMAX containing 10% FBS and pen/strep.
120 hours after addition of compounds, the plates were harvested and analyzed by ATPlite 1 Step (Perkin Elmer, cat no 6016739) according to the manufactures recommendation.

KDM2B (FBXL10) = molecular target: T3, KDM2B (FBXL10) (Homo sapiens, UniProt Q8NHM5); assay: Histone lysine demethylase AlphaLISA assay, KDM2B; format: biochemical; details: read-out: KDM2B HDME Inhibition IC50
T3 sequence (Q8NHM5 1-650): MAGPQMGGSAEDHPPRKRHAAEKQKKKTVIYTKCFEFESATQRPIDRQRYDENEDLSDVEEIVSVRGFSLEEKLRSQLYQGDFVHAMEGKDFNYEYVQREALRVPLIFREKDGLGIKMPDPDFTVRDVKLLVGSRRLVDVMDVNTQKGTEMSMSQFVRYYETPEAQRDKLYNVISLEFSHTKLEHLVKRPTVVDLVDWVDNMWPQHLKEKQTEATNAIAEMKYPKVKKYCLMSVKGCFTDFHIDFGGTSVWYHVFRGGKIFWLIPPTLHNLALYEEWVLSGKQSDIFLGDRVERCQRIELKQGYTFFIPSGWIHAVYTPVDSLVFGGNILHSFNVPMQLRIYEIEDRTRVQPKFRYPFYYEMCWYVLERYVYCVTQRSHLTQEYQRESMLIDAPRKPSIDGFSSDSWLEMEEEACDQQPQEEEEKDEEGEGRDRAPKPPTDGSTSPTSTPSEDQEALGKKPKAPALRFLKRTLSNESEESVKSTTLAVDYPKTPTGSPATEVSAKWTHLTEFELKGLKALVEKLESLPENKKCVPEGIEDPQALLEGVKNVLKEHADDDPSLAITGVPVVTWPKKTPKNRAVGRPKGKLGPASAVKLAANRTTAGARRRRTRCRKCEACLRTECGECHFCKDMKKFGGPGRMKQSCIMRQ
Experimental: as §1
as §2, with “read. […]” for “read.”
BH3K36M2: RKAAPATGGVK(Me2)KPHRYRPGTVK-(BIOTIN)? (Anaspec)
as §3

Chain of KDM6A (UTX) (O15550 919-1401): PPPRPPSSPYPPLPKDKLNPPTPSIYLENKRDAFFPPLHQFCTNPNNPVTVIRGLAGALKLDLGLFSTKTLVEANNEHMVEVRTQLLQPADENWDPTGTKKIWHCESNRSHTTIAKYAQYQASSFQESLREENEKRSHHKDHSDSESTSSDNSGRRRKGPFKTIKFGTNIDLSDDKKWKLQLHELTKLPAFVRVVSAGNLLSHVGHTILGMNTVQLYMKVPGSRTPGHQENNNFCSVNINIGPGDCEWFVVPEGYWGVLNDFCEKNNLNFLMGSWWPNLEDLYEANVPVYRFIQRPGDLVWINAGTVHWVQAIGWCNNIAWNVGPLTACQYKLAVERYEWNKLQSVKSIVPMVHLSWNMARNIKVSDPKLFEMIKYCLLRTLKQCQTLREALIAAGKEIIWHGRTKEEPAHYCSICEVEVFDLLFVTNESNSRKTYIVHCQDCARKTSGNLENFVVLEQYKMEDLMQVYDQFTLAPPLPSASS

SMILES	IC50 (KDM4C (JMJD2C))	IC50 (KDM5B (PLU-1))	IC50 (KDM6A (UTX))	IC50 (H3K4me3 mark)	EC50 (MCF7 cells)	IC50 (KDM2B (FBXL10))
CCN(CC)CCCCNCc1cc(CNC(=O)C(=O)OC(C)(C)C)ccn1 [Compound 28, tert-butyl ({[2-({[4-(diethylamino)-butyl]amino}methyl)pyridin-4-yl]methyl}carbamoyl)-formate]	> 2.5 µM	0.25 to 2.5 µM	> 2.5 µM	0.25 to 2.5 µM	0.25 to 2.5 µM	
CCN(CCN1CCC1)C(=O)CNCc1cc(CNC(=O)C(F)(F)F)ccn1 [Compound 30, N-[(2-{[({[2-(azetidin-1-yl)ethyl](ethyl)-carbamoyl}-methyl)amino]methyl}-pyridin-4-yl)methyl]-2,2,2-trifluoroacetamide]	> 2.5 µM	0.25 to 2.5 µM	> 2.5 µM	< 0.25 µM	< 0.25 µM	> 2.5 µM
CCN(CCN(C)C)C(=O)CNCc1cc(CNC(=O)C(F)(F)CC)ccn1 [Compound 32, N-[(2-{[({[2-(dimethylamino)-ethyl](ethyl)-carbamoyl}methyl)-amino]methyl}pyridin-4-yl)methyl]-2,2-difluorobutanamide]	> 2.5 µM	< 0.25 µM	> 2.5 µM	> 2.5 µM	> 2.5 µM	> 2.5 µM
CCN(CC)CCCCNCc1cc(C=NNc2ccc(C#N)cc2)ccn1 [Compound 70, 4-[2-{[2-({[4-(diethylamino)-butyl]amino}methyl)pyridin-4-yl]methylidene}-hydrazin-1-yl]benzonitrile]	> 2.5 µM	0.25 to 2.5 µM	> 2.5 µM	0.25 to 2.5 µM	0.25 to 2.5 µM	
CCN(CC)CCCCNCc1cc(C=NCC(C)O)ccn1 (centres unmarked) [Compound 74, 1-[{[2-({[4-(diethylamino)-butyl]amino}-methyl)pyridin-4-yl]methylidene}-amino]propan-2-ol]	> 2.5 µM	< 0.25 µM		< 0.25 µM	< 0.25 µM	
CCN(CC)CCCCNCc1cc(/C=N/CC2(CO)CC2)ccn1 [Compound 77, (1-{[{[2-({[4-(diethylamino)-butyl]amino}-methyl)pyridin-4-yl]-methylidene}amino]-methyl}cyclopropyl)-methanol]	> 2.5 µM	0.25 to 2.5 µM		< 0.25 µM	< 0.25 µM	> 2.5 µM
CCN(CC1CCCN1C)C(=O)CNCc1cc(/C=N/CCO)ccn1 (centres unmarked) [Compound 79, N-ethyl-2-[({4-[[(2-hydroxyethyl)imino]-methyl]pyridin-2-yl}methyl)amino]-N-[(1-methylpyrrolidin-2-yl)-methyl]acetamide]	0.25 to 2.5 µM	< 0.25 µM		< 0.25 µM	< 0.25 µM	> 2.5 µM
CCN(CCCN(C)C)C(=O)CNCc1cc(/C=N/CCO)ccn1 [Compound 82, N-[3-(dimethylamino)propyl]-N-ethyl-2-[({4-[[(2-hydroxyethyl)imino]-methyl]pyridin-2-yl}methyl)amino]-acetamide]	> 2.5 µM	> 2.5 µM	> 2.5 µM	< 0.25 µM	< 0.25 µM	> 2.5 µM
CCN(CC(C)N(C)C)C(=O)CNCc1cc(/C=N/CCO)ccn1 (centres unmarked) [Compound 83, N-[2-(dimethylamino)-propyl]-N-ethyl-2-[({4-[[(2-hydroxyethyl)imino]-methyl]pyridin-2-yl}methyl)amino]-acetamide]	0.25 to 2.5 µM	< 0.25 µM		< 0.25 µM	< 0.25 µM	> 2.5 µM
CCN(C[C@@H]1CCC[C@@H]1N(C)C)C(=O)CNCc1cc(/C=N/CCO)ccn1 [Compound 85, N-{[(1S,2S)-2-(dimethylamino)-cyclopentyl]methyl}-N-ethyl-2-[({4-[[(2-hydroxyethyl)imino]-methyl]pyridin-2-yl}methyl)amino] acetamide-]	< 0.25 µM	< 0.25 µM	> 2.5 µM	< 0.25 µM	0.25 to 2.5 µM	> 2.5 µM
CCN(CC)CCN(CC)C(=O)CNCc1cc(C=O)ccn1 [Compound 116, N-[2-(diethylamino)-ethyl]-N-ethyl-2-{[(4-formylpyridin-2-yl)methyl]amino}-acetamide]	< 0.25 µM	< 0.25 µM	> 2.5 µM	< 0.25 µM	< 0.25 µM	
CCN(CC1CCCN1C)C(=O)CNCc1cc(C=O)ccn1 (centres unmarked) [Compound 119, N-ethyl-2-{[(4-formylpyridin-2-yl)methyl]amino}-N-[(1-methylpyrrolidin-2-yl)methyl]acetamide]	> 2.5 µM	< 0.25 µM		< 0.25 µM	< 0.25 µM	
